Test results from US9326972B2, “Use of phenylmethimazoles, methimazole derivatives, and tautomeric cyclic thiones for the treatment of autoimmune/inflammatory diseases associated with toll-like receptor overexpression” (Ohio University, priority 2004, dated 2016).
Read-outs that look alike come from different tables or passages of the source.

Columns and labels:
[1] = tested on: TLR3, MHC Class I, PKR, IP-10 mRNA in FRTL-5 cells; conditions: FRTL-5, 100 U/ml IFN
C57BL/6J mice = test: LPS-induced endotoxic shock in C57BL/6J mice: survival and signs of shock; format: in vivo, mouse; conditions: for Signs of shock at 12 hours, % of Animals: LPS-challenged mice
NF-κB = NF-κB Luc reporter gene in FRTL-5 thyrocytes; format: cell-based, rat; conditions: FRTL-5, pNF-κB Luc, 100 μg/ml, 6 h
Protocol: (§1) Poly (I:C) (the dsRNA ligand commonly used as a test compound) activates the TLR3 mediated NF-κ β/Map kinase signal pathway in FRTL-5 thyrocytes. FRTL-5 cells were transiently transfected with 100 ng of luciferase reporter pNF-κB Luc and 2 ng of internal control phRL-Tk. After 36 h, cells were incubated with 100 μg/ml poly (I:C) or endotoxin-free E. coli DNA for 6 h. Measurements were made with the Dual Luciferase Assay System (Promega). Poly (I:C) increased TLR3 mediated NF-κB mediated luciferase activity (gene expression) 6 fold; dsDNA had no effect. Further support came from electrophoretic mobility shift analyses (EMSA). When FRTL-5 thyrocytes were incubated with 100 μg/ml poly (I:C), IL-1β, TNF-α or TPA, cells lysed after 1 h, and nuclear translocation of NF-κB measured. The poly (I:C) induced p50/p65 complex formation as measured by the presence of a specific new protein/DNA complex and its inhibition by anti-p50 and p65 antibodies, but not by anti-p52, c-rel and Rel B antibodies; the complex was also supershifted by anti-p50. […] Additionally, when FRTL-5 cells were co-transfected with pCMV-BD-Elk 1 and pFR-luc, then incubated with 100 μg/ml poly (I:C) or IL-1β for 6 hrs, ELK1 transactivation was increased 2-fold by both Poly (I:C) and IL-1β when measured with the Dual Luciferase Assay System (Promega). NF-κB/MAP Kinase signals evoked by TLR3 binding dsRNA are only one portion of TLR3 functional expression.
Cells were co-transfected with ISRE-Luc and pRLTk-Int and then treated without (none) or with Poly I:C (100 μg/ml), LPS (100 ng/ml), IL-1β (10 ng/ml) TNF-α (25 ng/ml), IFN-β (100 U/ml) or IFN-γ (1000 U/ml) in the presence of DMSO (−) or C10 for 6 hours. Data were obtained using the Dual Luciferase Assay system. The effect on the ISRE element is not duplicated by an NF-κB reporter plasmid despite the similarity of the two elements: ([…])5 (SEQ ID NO:3) vs. ([…])5 (SEQ ID NO:4), respectively. Data are representative of multiple experiments.
Plasmids for Reporter Gene Assays. Human IRF-3 was amplified from human cDNA and cloned into pCR 2.1 by the TOPO/TA (Invitrogen, Carlsbad, Calif.) cloning method, and then sequenced. IRF-3 was then excised by EcoRI digestion and subcloned into pCMV-BD (Stratagene, La Jolla, Calif.) for use in transactivation assays. To construct IFN-β-luc the human IFN-β promoter sequence was amplified from human genomic DNA (Clontech, Palo Alto, Calif.)) using Ex Taq™ Polymerase (Takara, Madison, Wis.). The PCR fragment contained human IFN-β promoter sequence from −125 to +34 relative to the transcription start site (+1) and incorporated KpnI and XhoI restriction sites at the 5′ and 3′ ends, respectively. The primers were as follows: hIFN-β (−125) KpnI (5′-[…]-3′) (SEQ ID NO:9) and hIFN-β (+34) XhoI (5′-[…]-3′). (SEQ ID NO: 10) The fragment was digested with KpnI and XhoI then ligated into a similarly digested pGL3 Basic (Promega, Madison, Wis.) vector. The human MyD88 wild and dominant negative expression vectors were kindly donated by Dr. P. E. Auron. pFR-luc (5×Gal4 DNA binding domains and minimal TATA box), ISRE-Luc, NF-κB-luc and the Elk1 trans-Reporting System were purchased from Stratagene. pRL TK-Int was purchased from Promega.
Transient Expression Analysis. A DEAE procedure was used to transfect promoter-luciferase gene constructs and expression plasmids into FRTL-5 cells. Briefly, FRTL-5 cells were grown in 24-well plates to about 70% confluence, washed with 0.5 ml of serum-free culture medium (6H0 medium), then exposed to 125 μl of premade plasmid-DEAE mixture per well for 15 min at room temperature. The plasmid-DEAE mixture was prepared by incubating 100 ng of plasmid DNA, unless otherwise noted in individual experiments, with 3.125 μl of DEAE-Dextran (10 mg/ml) (Promega, Madison Wis.). FRTL-5 cells were incubated with this mixture for 2 hr at 37° C. in a CO2 incubator, before 2 ml of 6H5 medium was added. […]

ERK1/2 MAPK, ELK1 = test: ERK1/2 MAPK phosphorylation and Elk1 transactivation in FRTL-5 thyrocytes; format: cell-based, rat; conditions: FRTL-5, pCMV-BD-Elk 1 and pFR-luc, 6 hrs
Protocol: as §1, with “NF-κB/MAP Kinase signals evoked by TLR3 binding dsRNA are only one portion of TLR3 functional expression.” left out

FRTL-5 cells = test: Effect of 2-aminopurine (PKR inhibitor) in dsRNA-transfected FRTL-5 cells; format: cell-based, rat; conditions: FRTL-5, 10 mM 2-AP
Protocol: FIG. 2. […] After total RNA purification, 20 μg of total RNA were analyzed with indicated radiolabeled cDNA probes. […] Cells were transfected Lipofectamine 2000 alone (L) or with the indicated amount of Poly (I:C) (RNA) or endotoxin-free E. coli DNA. After 12 and 24 hours, 20 μg of total RNA was analyzed with the indicated radiolabeled cDNA probes. […] In (C), the effect of 2-aminopurine (a PKR inhibitor) on transfected dsRNA-induced TLR3 mRNA levels was measured. Again cells were transfected with Lipofectamine 2000 alone or Lipofectamine with the indicated amount of Poly (I:C) or endotoxin-free E. coli DNA in the presence or absence of 10 mM 2-aminopurine. After the indicated incubation time, cells were harvested and 20 μg of total RNA was analyzed with the indicated radiolabeled cDNA probes. […] Data are representative of multiple experiments. In sum, dsRNA transfection is needed to increase gene expression of signals implicated in autoimmune-inflammatory diseases such as MHC genes and high levels of Type I interferons, not simply activation of TLR by incubating thyrocytes with dsRNA by dsRNA binding to TLR3 receptors. Moreover, despite increased PKR, the critical signal involved in TLR3/Type I IFN signaling by dsRNA transfection is not PKR mediated. […]

[2] = LPS 20 mg/kg i/p, drug i/p 30 min before LPS, 8 mice per group
[3] = challenged with LPS first, treated after 12 hours when shock had appeared

## IFN-γ: a Type II IFN, from Biosource International
[1]; 1 hr
  GAPDH mRNA, % of Control at 0 Time (±15%): 100 % of Control at 0 Time
  IP-10 mRNA, % of Control at 0 Time (±15%): 100 % of Control at 0 Time
  MHC Class I mRNA, % of Control at 0 Time (±15%): 100 % of Control at 0 Time
  PKR mRNA, % of Control at 0 Time (±15%): 100 % of Control at 0 Time
  TLR3 mRNA, % of Control at 0 Time (±15%): 100 % of Control at 0 Time
[1]; 3 hr
  GAPDH mRNA, % of Control at 0 Time (±15%): 100 % of Control at 0 Time
  IP-10 mRNA, % of Control at 0 Time (±15%): 100 % of Control at 0 Time
  MHC Class I mRNA, % of Control at 0 Time (±15%): 100 % of Control at 0 Time
  PKR mRNA, % of Control at 0 Time (±15%): 100 % of Control at 0 Time
  TLR3 mRNA, % of Control at 0 Time (±15%): 100 % of Control at 0 Time
[1]; 6 hr
  GAPDH mRNA, % of Control at 0 Time (±15%): 100 % of Control at 0 Time
  IP-10 mRNA, % of Control at 0 Time (±15%): 100 % of Control at 0 Time
  MHC Class I mRNA, % of Control at 0 Time (±15%): 100 % of Control at 0 Time
  PKR mRNA, % of Control at 0 Time (±15%): 100 % of Control at 0 Time
  TLR3 mRNA, % of Control at 0 Time (±15%): 100 % of Control at 0 Time
[1]; 12 hr
  GAPDH mRNA, % of Control at 0 Time (±15%): 100 % of Control at 0 Time
  IP-10 mRNA, % of Control at 0 Time (±15%): 100 % of Control at 0 Time
  MHC Class I mRNA, % of Control at 0 Time (±15%): 100 % of Control at 0 Time
  PKR mRNA, % of Control at 0 Time (±15%): 100 % of Control at 0 Time
  TLR3 mRNA, % of Control at 0 Time (±15%): 100 % of Control at 0 Time

## C[C@]12C=CC(=O)C=C1CC[C@@H]1[C@@H]2[C@@H](O)C[C@@]2(C)[C@H]1CC[C@]2(O)C(=O)CO [prednisolone]
C57BL/6J mice; [2]
  Number of surviving mice, 1 week: 0
  Number of surviving mice, 6 hrs: 8
  Number of surviving mice, 12 hrs: 8
  Number of surviving mice, 18 hrs: 3
  Number of surviving mice, 36 hrs: 0
C57BL/6J mice
  Signs of shock at 12 hours, % of Animals: 100 % of Animals
C57BL/6J mice; [3]
  Number of surviving mice, 1 week: 0
  Number of surviving mice, 18 hrs: 1
  Number of surviving mice, 36 hrs: 0

## CNC[C@H](O)[C@@H](O)[C@H](O)[C@H](O)CO.Cc1c(Nc2ncccc2C(=O)O)cccc1C(F)(F)F [flunixin of meglumine]
C57BL/6J mice; [2]
  Number of surviving mice, 1 week: 0
  Number of surviving mice, 6 hrs: 8
  Number of surviving mice, 12 hrs: 8
  Number of surviving mice, 18 hrs: 4
  Number of surviving mice, 36 hrs: 0
C57BL/6J mice
  Signs of shock at 12 hours, % of Animals: 100 % of Animals
C57BL/6J mice; [3]
  Number of surviving mice, 1 week: 0
  Number of surviving mice, 18 hrs: 0
  Number of surviving mice, 36 hrs: 0

## Poly (I:C) [reference compound]
NF-κB
  increase of NF-κB mediated luciferase activity: 6 fold
ERK1/2 MAPK, ELK1
  increase of ELK1 transactivation: 2 fold

## Nc1ncc2[nH]cnc2n1 [Compound 2-AP, 2-aminopurine]
FRTL-5 cells
  dsRNA-transfection-increased NF-κB p65/p50 complex formation (EMSA): strongly inhibited
  dsRNA-transfection-induced increase in IFN-β mRNA levels: did not inhibit

## IL-1β: cytokine used as positive control
ERK1/2 MAPK, ELK1
  increase of ELK1 transactivation: 2 fold
